The record followed here is US10167299B2, “1-(3-aminopropyl) substituted cyclic amine compounds, preparation method therefor, and pharmaceutical compositions and uses thereof” (SHANGHAI INSTITUTE OF MATERIA MEDICA, CHINESE ACADEMY OF …, priority 2013, dated 2019).

Structures are written as SMILES.

Data set [1] can be described thus: Pharmacokinetic experiment of rats. The following applies: for AUC(0-t) / AUC(0-inf) / Cmax / MRT / Tmax / bioavailability: male, rat, plasma.
Experimental: The administration volume was 10 mL/kg and drug was formulated with DMSO/Tween 80/physiological saline (5:5:90, v/v/v). […] 2 h after dosing, the rats ate together.
At above time points, 0.3 ml of venous blood was taken from retrobulbar venous plexus of the rat and loaded into EDTA-2K anticoagulative tube. After centrifuged at 11000 rpm for 5 mm, the plasma was separated and frozen at −20° C. in a refrigerator.
The concentration of each compound in rat plasma was determined by LC/MS/MS.
(§3) The pharmacokinetic parameters after administration were calculated by using non-compartment model of WinNonlin 5.3 software (Pharsight Corporation, USA).
Data set [2] relates to Salmonella typhimurium strain TA100. Description: Bacterial reverse mutation assay TA100 (-S9). The class given is cell-based. The following applies: for mutagenic effect on Salmonella typhimurium strain TA100: -S9, 1-5000 μg/dish. The method, then: (§1) The mutagenic effects of compounds 18 and 22 of the present invention on Salmonella typhimurium strains TA98 and TA100 in non-metabolic activation (-S9) condition were determined. Two strains, TA98 and TA100 were chosen in bacterial reverse mutation assay for compounds 18 and 22. 9 doses containing […], negative and positive controls were set in experiments. 3 dishes were used for each dose. The experiment was carried out under -S9 condition.

Data set [3] has as its system Salmonella typhimurium strain TA98. The data set can be described thus: Bacterial reverse mutation assay TA98 (-S9). The following applies: for mutagenic effect on Salmonella typhimurium strain TA98: -S9, 1-5000 μg/dish. The class given is cell-based. The procedure:
as §1

The nature of data set [4]: Four days subacute toxicity test of rats. It is filed as in vivo. The following applies: SD rats; for Clinical observations, clinical pathology detection (hematology and serum biochemistry) and macroscopic morphological observation / weight gain compared with vehicle control group: gavage 4 days, 100 and 1000 mg/kg; for weight gain compared with vehicle control group: some male and female animals; for NOAEL at 4 days: both sexes, rat, in vivo, po, gavage for 4 days, read-out: No Observed Adverse Effect Level (NOAEL). From the text:
After compounds 18 and 22 of the present invention were administrated to SD rats through gavage for 4 consecutive days, the toxic reaction was preliminarily assessed to confirm the possible target organ of toxic reaction.
One vehicle control group was set. Each group contained four rats including two male rats and two female rats. During the experiment stage, the animals were daily clinically observated. The body weight was regularly measured. On the 5th day, all animals were subject to pathological examination and gross anatomy.

A short description of data set [5]: Pharmacokinetic experiment on Beagles.
Experimental: The administration volume was 2 mL/kg and 1 mL/kg, respectively. The compound was suspended in 20% PEG400 (4:96) for gavage and formulated in DMSO/Tween 80/physiological saline (5:1:94, v/v/v) for intravenous injection. […] 2 h after dosing, all of Beagles ate together.
At above time points, 0.6 ml venous blood was taken from limb venous and loaded into EDTA-2K anticoagulative tube. After centrifuged at 11000 rpm for 5 mm, the plasma was separated and frozen at −20° C. in a refrigerator.
as §3
The subject of a further data set is HOS-CD4-CCR5 cells. Description: Toxicity test of compounds on HOS-CD4-CCR5 cells (MTT). The note with it: HOS-CD4+-CCR5 cells (Table 8). The class given is cell-based. Put shortly:
(§2)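 Six-point 5-fold dilutions of compound in 10% FBS RPMI-1640 or DMEM, in triplicate, with HOS-CD4-CCR5 cells (4×10^5/ml) for 3 days or PHA-stimulated PBMC (5×10^6/ml) for 7 days, fed on day 3, at 37 °C, 5% CO2. Viability by MTT, OD 570 nm, reference 630 nm.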

A further data set concerns PBMC cells. Description: Toxicity test of compounds on PBMC cells (MTT). The class given is cell-based. Put shortly:
as §2

Where [6] appears, read: male, beagle, dog, plasma, iv, 3 mg/kg.
Where [7] appears, read: male, beagle, dog, plasma, po, 15 mg/kg.

For the compound `Cc1nnc(C(C)C)n1C1CCN(CC[C@H](NC(=O)C2CCCC2)c2cccs2)CC1` [Compound 17, N-[(1S)-3-[4-(3-isopropyl-5-methyl-4H-1,2,4-triazol-4-yl)-piperidin-1-yl]-1-(thiophen-2-yl)propyl]cyclopentane-1-carboxamide], the AUC(0-t) (commonly exposure summed from dosing to a finite time, without extrapolation to infinity) in data set [1] (intravenous, 10 mg/kg) was found to be 374 ng·h/mL. In data set [1] (iv, 10 mg/kg), the AUC(0-inf) – broadly, the area under the concentration-time curve extrapolated to infinity – stood at 394 ng·h/mL; the AUC(0-t) amounted to 374 ng·h/mL; the concentration peaked (Cmax) at 246 ng/mL; the MRT – broadly, the average time that molecules of a dose stay in the body – is 1.42 h. The Tmax (in general, the time from dosing to the highest level) in data set [1] (iv, 10 mg/kg) is 0.25 h. For the same compound, in data set [1] (oral), the bioavailability (in general, the share of a dose that reaches the circulation, judged against a reference dose that is usually intravenous) was determined as 46.6%. Besides, in data set [1] (po, 20 mg/kg), the AUC(0-inf) was 364 ng·h/mL, the AUC(0-t) was 348 ng·h/mL, the Cmax (commonly the highest concentration seen after dosing) stood at 122 ng/mL and the MRT was 2.31 h. Moreover, in data set [1] (po, 20 mg/kg), the Tmax came out at 0.5 h and the bioavailability stood at 46.6%. In addition, the “AUC0-t ng/mL * h” value in data set [1] (rats, gavage, 20 mg/kg) turned out to be 347.9 ng·h/mL. Further, in data set [1] (rats, vein, 10 mg/kg), the “CLz” value is 423 mL/min/kg.
Take `Cc1nnc(C(C)C)n1C1CC2CCC(C1)N2CC[C@H](NC(=O)C1CCCC1)c1cccs1` (stereo partly drawn) [Compound 18, N-[(1S)-3-[exo-3-(3-isopropyl-5-methyl-4H-1,2,4-triazol-4-yl)-8-azabicyclo[3.2.1]octane-8-yl]-1-(thiophen-2-yl)propyl]cyclopentane-1-carboxamide]: in data set [2], the “mutagenic effect on Salmonella typhimurium strain TA100” value is recorded as “no mutagenic effect”. The “number of revertant colonies (Mean ± SD)” value in data set [2] (TA100, -S9, 1 μg/dish) was found to be 116 ± 9.0; in data set [2] (TA100, -S9, 3 μg/dish), 96 ± 10.0; in data set [2] (TA100, -S9, 10 μg/dish) it was 95 ± 13.1; in data set [2] (TA100, -S9, 30 μg/dish), 100 ± 8.3; in data set [2] (TA100, -S9, 100 μg/dish) it was 88 ± 0.6; in data set [2] (TA100, -S9, 300 μg/dish), 91 ± 18.2. Further, the “number of revertant colonies (Mean ± SD)” value is listed as 106 ± 17.6 in data set [2] (TA100, -S9, 1000 μg/dish); 108 ± 6.9 in data set [2] (TA100, -S9, 3000 μg/dish); 95 ± 7.2 in data set [2] (TA100, -S9, 5000 μg/dish); 24 ± 5.0 in data set [3] (TA98, -S9, 1 μg/dish); 23 ± 2.6 in data set [3] (TA98, -S9, 3 μg/dish); 20 ± 2.3 in data set [3] (TA98, -S9, 10 μg/dish). Besides, the “number of revertant colonies (Mean ± SD)” value was 19 ± 1.5 in data set [3] (TA98, -S9, 30 μg/dish); 15 ± 4.6 in data set [3] (TA98, -S9, 100 μg/dish); 20 ± 4.2 in data set [3] (TA98, -S9, 300 μg/dish); 18 ± 1.5 in data set [3] (TA98, -S9, 1000 μg/dish); 21 ± 1.5 in data set [3] (TA98, -S9, 3000 μg/dish); 20 ± 4.9 in data set [3] (TA98, -S9, 5000 μg/dish). The “mutagenic effect on Salmonella typhimurium strain TA98” value in data set [3] was “no mutagenic effect”. For the same compound, the “Clinical observations, clinical pathology detection (hematology and serum biochemistry) and macroscopic morphological observation” value in data set [4] is on record as “no significant drug-related changes”. In addition, the “weight gain compared with vehicle control group” value in data set [4] is “increased slowly or exhibited negative growth”. Also, the NOAEL – broadly, the highest dose or exposure tested at which no adverse effect was seen – at 4 days in data set [4] is 1000 mg/kg.
Turning to `Cc1nnc(C(C)C)n1C1CC2CCC(C1)N2CC[C@H](NC(=O)C1CCC(F)(F)CC1)c1ccsc1` (stereo partly drawn) [Compound 22, 4,4-difluoro-N-[(1S)-3-[exo-3-(3-isopropyl-5-methyl-4H-1,2,4-triazol-4-yl)-8-azabicyclo[3.2.1]octane-8-yl]-1-(thiophen-3-yl)propyl]cyclohexane-1-carboxamide], the AUC(0-t) in data set [5] was determined as 10900 ng·h/mL; in data set [5] (male, beagle, dog, plasma, intravenous, 3 mg/kg) it was 10900 ng·h/mL; in data set [5] (setting [7]) it was 5430 ng·h/mL. The “AUC0-t ng/mL * h” value in data set [5] (Beagles, gavage, 15 mg/kg) is 5426 ng·h/mL. In addition, the Tmax h in data set [5] (Beagles, gavage, 15 mg/kg) is reported as 0.833 h. Moreover, the t1/2 h in data set [5] (Beagles, gavage, 15 mg/kg) is listed as 3.89 h. Further, the “CLz” value in data set [5] (Beagles, vein, 3 mg/kg) is 4.63 mL/min/kg. The figures for the AUC(0-inf) in data set [5] (setting [6]) and in data set [5] (setting [7]) were 10900 ng·h/mL and 5520 ng·h/mL, respectively. Besides, the mean residence time MRT in data set [5] (setting [6]) was found to be 1.65 h; in data set [5] (setting [7]), 2.11 h. Besides, the half-life (commonly the time in which the quantity being followed falls by half) was 1.73 h in data set [5] (setting [6]) and 3.89 h in data set [5] (setting [7]). Also, the bioavailability in data set [5] (male, beagle, dog, plasma, oral) was determined as 9.98%; in data set [5] (setting [7]), 9.98%. For the same compound, the maximum concentration (Cmax) in data set [5] (setting [7]) is 4610 ng/mL. Also, the time to peak (Tmax) in data set [5] (male, beagle, dog, plasma, po, 15 mg/kg, Tmax h, Beagles, gavage) stood at 0.833 h. Also, the “mutagenic effect on Salmonella typhimurium strain TA100” value in data set [2] was “no mutagenic effect”. Besides, the “number of revertant colonies (Mean ± SD)” value in data set [2] (TA100, -S9, 1 μg/dish) is recorded as 107 ± 16.7; in data set [2] (TA100, -S9, 3 μg/dish) it was 109 ± 9.3; in data set [2] (TA100, -S9, 10 μg/dish) it was 112 ± 10.7; in data set [2] (TA100, -S9, 30 μg/dish), 90 ± 11.0; in data set [2] (TA100, -S9, 100 μg/dish), 97 ± 4.6; in data set [2] (TA100, -S9, 300 μg/dish), 102 ± 2.9. In addition, the “number of revertant colonies (Mean ± SD)” value is reported as 90 ± 6.5 in data set [2] (TA100, -S9, 1000 μg/dish); 86 ± 13.1 in data set [2] (TA100, -S9, 3000 μg/dish); 109 ± 17.5 in data set [2] (TA100, -S9, 5000 μg/dish); 23 ± 3.2 in data set [3] (TA98, -S9, 1 μg/dish); 24 ± 3.6 in data set [3] (TA98, -S9, 3 μg/dish); 23 ± 2.6 in data set [3] (TA98, -S9, 10 μg/dish). The “number of revertant colonies (Mean ± SD)” value in data set [3] (TA98, -S9, 30 μg/dish) turned out to be 21 ± 5.2; in data set [3] (TA98, -S9, 100 μg/dish) it was 23 ± 6.7; in data set [3] (TA98, -S9, 300 μg/dish) it was 23 ± 6.5; in data set [3] (TA98, -S9, 1000 μg/dish), 19 ± 6.4; in data set [3] (TA98, -S9, 3000 μg/dish) it was 22 ± 5.0; in data set [3] (TA98, -S9, 5000 μg/dish) it was 25 ± 7.2. Further, the half-maximal cytotoxic concentration (CC50) (as a rule, the concentration at which the toxic effect on the cells reaches its halfway point) with HOS-CD4-CCR5 cells is greater than 800 µg/mL. Also, the “mutagenic effect on Salmonella typhimurium strain TA98” value in data set [3] is given as “no mutagenic effect”. The “Clinical observations, clinical pathology detection (hematology and serum biochemistry) and macroscopic morphological observation” value in data set [4] is listed as “no significant drug-related changes”. In data set [4], the “weight gain compared with vehicle control group” value is “increased slowly or exhibited negative growth”. In data set [4], the NOAEL at 4 days stood at 1000 mg/kg.
For the compound `Cc1ccc([C@H](CCN2C3CCC2CC(n2c(C)nnc2C(C)C)C3)NC(=O)C2CCC(F)(F)CC2)s1` (stereo partly drawn) [Compound 29, 4,4-difluoro-N-[(1S)-3-[exo-3-(3-isopropyl-5-methyl-4H-1,2,4-triazol-4-yl)-8-azabicyclo[3.2.1]octane-8-yl]-1-(5-methylthiophen-2-yl)propyl]cyclohexane-1-carboxamide], the “CC50” value with PBMC cells (PBMC cells (Table 5)), with PBMC cells (PBMC cells (Table 6)) and with HOS-CD4-CCR5 cells was greater than 200 µg/mL throughout.
